Measurements reported in PMC3806051 (Journal of the American Chemical Society, 2013).
Values joined by “and” are separate entries in the source; they are usually repeats but may differ in a detail not shown here. Identical values can stand only once. “Also recorded” adds a separate entry of the source. Like-named read-outs stand apart in the source and are kept apart here. Blank lines part the entries; values can stand above or below the compound they belong to.

What was measured:
[1] = biological target: recombinant human His-tagged MDM2 protein (residues 1–118) (Homo sapiens, UniProt Q00987); assay: FP-based competitive protein binding assay
[2] = Isomerization in binding assay medium; type: physicochemical; conditions: for isomerization kinetics in binding assay medium: room temperature; for proportion of isomer in the mixture: 100 h time-point, regardless which isomer was used at the beginning
[3] = Stability / isomerization in organic solvents; conditions: CH2Cl2, THF, EtOAc, DMSO
[4] = Interconversion of isomers in MeCN-H2O; type: physicochemical; conditions: for isomerization in CH3CN-H2O: over a period of up to four days
[5] = test system: animal models of human cancer; conditions: ref 6b; cited from earlier work
MDM2 = conditions: ref 6b; cited from earlier work
[6] = test system: SJSA-1 osteosarcoma tumor xenograft; type: in vivo; conditions: for tumor growth inhibition as compared to vehicle control: end of treatment (day 26); for weight loss or other signs of toxicity: 5a 200 mg/kg, 5b 100 and 200 mg/kg daily oral 14 days
[7] = test system: p53 activation in SJSA-1 tumor tissue; assay: Pharmacodynamic study, Western blotting of tumor tissue; type: in vivo, mouse; conditions: single oral dose 200 mg/kg; for p53 activation in tumor tissue (accumulation of p53, MDM2 and p21): Western blot
[8] = Isomerization in vivo in plasma and tumor tissue; conditions: plasma and tumor tissue of SCID mice
[9] = Tumor tissue concentration in tumor bearing SCID mice; conditions: for Tumor Concentration of isomer: single oral 100 mg/kg, 24 h
[10] = test system: SJSA-1 osteosarcoma cell line; assay: cells; conditions: Homo sapiens, read-out: IC50 cell growth inhibition
[11] = Plasma concentration in tumor bearing SCID mice; conditions: for Plasma Concentration of isomer: single oral 100 mg/kg, 24 h
[12] = Isomerization in cell culture medium; type: physicochemical; conditions: 2 days, starting from 5a or 5b
[13] = binding assay medium, after 12 days
[14] = FP competitive binding to MDM2, incubation 15 min
[15] = calculated from IC50, FP competitive binding to MDM2, incubation 15 min

- IC50 [1]: 565 ± 57 nM
- Ki [1]: 76.2 ± 7.7 nM
Structure (SMILES): CNC(=O)[C@@H]1N[C@H](CC(C)(C)C)[C@]2(C(=O)Nc3cc(Cl)ccc32)[C@H]1c1cccc(Cl)c1 [2a, (2′R,3S,4′R,5′R)-6-chloro-4′-(3-chlorophenyl)-N-methyl-2′-neopentyl-2-oxospiro[indoline-3,3′-pyrrolidine]-5′-carboxamide]

- IC50 [1]: 22.5 ± 2.2 nM
- Ki [1]: 1.9 ± 0.2 nM
Structure (SMILES): CC(C)(C)C[C@@H]1N[C@@H](C(N)=O)[C@H](c2cccc(Cl)c2F)[C@]12C(=O)Nc1cc(Cl)ccc12 [9b, (2′S,3R,4′S,5′R)-6-chloro-4′-(3-chloro-2-fluorophenyl)-2′-neopentyl-2-oxospiro[indoline-3,3′-pyrrolidine]-5′-carboxamide]

- IC50 [1]: 30.9 ± 2.9 nM
- Ki [1]: 3.1 ± 0.3 nM
Structure (SMILES): CNC(=O)[C@@H]1N[C@@H](CC(C)(C)C)[C@@]2(C(=O)Nc3cc(Cl)ccc32)[C@H]1c1cccc(Cl)c1 [2b, (2′S,3R,4′R,5′R)-6-chloro-4′-(3-chlorophenyl)-N-methyl-2′-neopentyl-2-oxospiro[indoline-3,3′-pyrrolidine]-5′-carboxamide]

- IC50 [1]: 55.1 ± 5.2 nM
- Ki [1]: 6.4 ± 0.6 nM
Structure (SMILES): CC(C)(C)C[C@@H]1N[C@@H](C(=O)O)[C@H](c2cccc(Cl)c2F)[C@]12C(=O)Nc1cc(Cl)ccc12 [8b, (2′S,3R,4′S,5′R)-6-chloro-4′-(3-chloro-2-fluorophenyl)-2′-neopentyl-2-oxospiro[indoline-3,3′-pyrrolidine]-5′-carboxylic acid]

Structure (SMILES): CN(C)C(=O)[C@@H]1N[C@H](CC(C)(C)C)[C@]2(C(=O)Nc3cc(Cl)ccc32)[C@H]1c1cccc(Cl)c1 [1a, (2′R,3S,4′R,5′R)-6-chloro-4′-(3-chlorophenyl)-N,N-dimethyl-2′-neopentyl-2-oxospiro[indoline-3,3′-pyrrolidine]-5′-carboxamide]
- remaining of starting isomer [2, 13]: 17.6%
- converted into 1b ([2]; binding assay medium, after 12 days, started with 1a): 53%
- stability in aprotic solvents [3]: relatively stable

- IC50 [1]: 498 ± 44 nM
- Ki [1]: 67 ± 5.9 nM
Structure (SMILES): CC(C)(C)C[C@H]1N[C@@H](C(=O)O)[C@H](c2cccc(Cl)c2F)[C@@]12C(=O)Nc1cc(Cl)ccc12 [8a, (2′R,3S,4′S,5′R)-6-chloro-4′-(3-chloro-2-fluorophenyl)-2′-neopentyl-2-oxospiro[indoline-3,3′-pyrrolidine]-5′-carboxylic acid]

Structure (SMILES): CC(C)(C)C[C@@H]1N[C@@H](C(=O)NCC[C@H](O)CO)[C@H](c2cccc(Cl)c2F)[C@@]12C(=O)Nc1cc(Cl)ccc12 [5c, (2′S,3S,4′S,5′R)-6-chloro-4′-(3-chloro-2-fluorophenyl)-N-((S)-3,4-dihydroxybutyl)-2′-neopentyl-2-oxospiro[indoline-3,3′-pyrrolidine]-5′-carboxamide]
- isomerized into 5b ([2]; binding assay medium, within 30 min): approximately 20%
- isomerization kinetics in binding assay medium [2]: very fast isomerization kinetics
- isomerization in CH3CN-H2O [4]: gradually converted into a mixture of four isomers

Structure (SMILES): CN(C)C(=O)[C@@H]1N[C@@H](CC(C)(C)C)[C@@]2(C(=O)Nc3cc(Cl)c(F)cc32)[C@H]1c1cccc(Cl)c1 [10b, (2′S,3R,4′R,5′R)-6-chloro-4′-(3-chlorophenyl)-5-fluoro-N,Ndimethyl-2′-neopentyl-2-oxospiro[indoline-3,3′-pyrrolidine]-5′-carboxamide]
- IC50 [1, 14]: 835 ± 121 nM
- Ki [1, 15]: 113 ± 16 nM

Structure (SMILES): CNC(=O)[C@@H]1N[C@@H](CC(C)(C)C)[C@@]2(C(=O)Nc3cc(Cl)ccc32)[C@H]1c1cccc(Cl)c1F [4b, (2′S,3R,4′S,5′R)-6-chloro-4′-(3-chloro-2-fluorophenyl)-Nmethyl-2′-neopentyl-2-oxospiro[indoline-3,3′-pyrrolidine]-5′-carboxamide]
- IC50 [1, 14]: 25.9 ± 1.5 nM
- Ki [1, 15]: 2.4 ± 0.2 nM
- times more potent than the respective isomer a (binding to MDM2) ([1]; cis-cis isomer b versus trans-cis isomer a): > 15 times

- IC50 [1]: 721 ± 79 nM
- Ki [1]: 97.5 ± 10.7 nM
Structure (SMILES): CCOC(=O)[C@@H]1N[C@@H](CC(C)(C)C)[C@@]2(C(=O)Nc3cc(Cl)ccc32)[C@H]1c1cccc(Cl)c1F [7b, (2′S,3R,4′S,5′R)-ethyl 6-chloro-4′-(3-chloro-2-fluorophenyl)-2′-neopentyl-2-oxospiro[indoline-3,3′-pyrrolidine]-5′-carboxylate]

Structure (SMILES): CC(C)(C)C[C@H]1N[C@@H](C(=O)NCC[C@H](O)CO)[C@H](c2cccc(Cl)c2)[C@@]12C(=O)Nc1cc(Cl)c(F)cc12.Cl [MI-219]
- tumor growth in animal models of human cancer [5]: strongly inhibits tumor growth
- binding affinity to MDM2 (MDM2): low nanomolar affinity

Structure (SMILES): CC(C)(C)C[C@H]1N[C@@H](C(=O)NCC[C@H](O)CO)[C@H](c2cccc(Cl)c2F)[C@]12C(=O)Nc1cc(Cl)ccc12 [5d, (2′R,3R,4′S,5′R)-6-chloro-4′-(3-chloro-2-fluorophenyl)-N-((S)-3,4-dihydroxybutyl)-2′-neopentyl-2-oxospiro[indoline-3,3′-pyrrolidine]-5′-carboxamide]
- isomerization in CH3CN-H2O [4]: gradually converted into a mixture of four isomers

Structure (SMILES): CNC(=O)[C@@H]1N[C@@H](CC(C)(C)C)[C@@]2(C(=O)Nc3cc(Cl)c(F)cc32)[C@H]1c1cccc(Cl)c1 [11b, (2′S,3R,4′R,5′R)-6-chloro-4′-(3-chlorophenyl)-5-fluoro-Nmethyl-2′-neopentyl-2-oxospiro[indoline-3,3′-pyrrolidine]-5′-carboxamide]
- IC50 [1, 14]: 112 ± 12 nM
- Ki [1, 15]: 14.2 ± 1.1 nM

Structure (SMILES): CC(C)(C)C[C@@H]1N[C@@H](C(=O)NCC[C@H](O)CO)[C@H](c2cccc(Cl)c2F)[C@]12C(=O)Nc1cc(Cl)ccc12 [5b, (2′S,3R,4′S,5′R)-6-chloro-4′-(3-chloro-2-fluorophenyl)-N-((S)-3,4-dihydroxybutyl)-2′-neopentyl-2-oxospiro[indoline-3,3′-pyrrolidine]-5′-carboxamide]
- tumor growth inhibition as compared to vehicle control ([6]; 100 mg/kg daily oral gavage 14 days): 67%
- weight loss or other signs of toxicity [6]: no significant weight loss
- proportion of isomer in the mixture ([2]; binding assay medium): approximately 50%
- isomerization kinetics in binding assay medium [2]: slow isomerization kinetic and was the most stable
- apoptosis induction in tumor tissue (PARP cleavage, caspase-3 activation) ([7]; 24 h): stronger apoptosis induction than 5a
- p53 activation in tumor tissue (accumulation of p53, MDM2 and p21) ([7]; 200 mg/kg): effectively activated p53; also recorded: clearly more potent than 5a
- converted into a mixture of three other isomers ([4]; CH3CN-H2O, after 12 days): 4%
- isomerization in vivo [8]: isomerizes slowly
- Tumor Concentration of isomer ([9]; dosed with 5a): BLQ
- Tumor Concentration of isomer ([9]; dosed with 5b): BLQ
- tumor tissue concentration of 5b in mice dosed with 5b versus mice dosed with 5a ([9]; mouse, in vivo): 11 fold and 16 fold
- IC50 ([10]; SJSA-1, 24 h): 18100 ± 2400 nM
- IC50 ([10]; SJSA-1, 48 h): 630 ± 40 nM
- IC50 ([10]; SJSA-1, 72 h): 180 ± 10 nM
- Plasma Concentration of isomer ([11]; dosed with 5a): BLQ
- plasma concentration of 5b in mice dosed with 5b versus mice dosed with 5a ([11]; mouse, in vivo): 7 fold and 12 fold
- proportion of 5b of all 4 isomers [12]: approximately 50%

- remaining of starting isomer [2, 13]: 93.9%
Structure (SMILES): CN(C)C(=O)[C@@H]1N[C@@H](CC(C)(C)C)[C@@]2(C(=O)Nc3cc(Cl)ccc32)[C@H]1c1cccc(Cl)c1 [1b, (2′S,3R,4′R,5′R)-6-chloro-4′-(3-chlorophenyl)-N,N-dimethyl-2′-neopentyl-2-oxospiro[indoline-3,3′-pyrrolidine]-5′-carboxamide]

Structure (SMILES): CC(C)(C)C[C@H]1N[C@@H](C(=O)NCC[C@H](O)CO)[C@H](c2cccc(Cl)c2F)[C@@]12C(=O)Nc1cc(Cl)ccc12 [5a, (2′R,3S,4′S,5′R)-6-chloro-4′-(3-chloro-2-fluorophenyl)-N-((S)-3,4-dihydroxybutyl)-2′-neopentyl-2-oxospiro[indoline-3,3′-pyrrolidine]-5′-carboxamide]
- tumor growth inhibition as compared to vehicle control ([6]; 200 mg/kg daily oral gavage 14 days): 41%
- weight loss or other signs of toxicity [6]: no significant weight loss
- proportion of isomer in the mixture ([2]; binding assay medium): ~40%
- p53 activation in tumor tissue (accumulation of p53, MDM2 and p21) [7]: effectively activated p53
- isomerization in CH3CN-H2O [4]: gradually converted into a mixture of four isomers
- isomerization in vivo [8]: isomerizes very fast
- Tumor Concentration of isomer ([9]; dosed with 5a): BLQ
- Tumor Concentration of isomer ([9]; dosed with 5b): BLQ
- IC50 ([10]; SJSA-1, 24 h): 30300 ± 6230 nM
- IC50 ([10]; SJSA-1, 48 h): 950 ± 160 nM
- IC50 ([10]; SJSA-1, 72 h): 180 ± 20 nM
- IC50 ([10]; SJSA-1, 96 h): 150 ± 30 nM
- Plasma Concentration of isomer ([11]; dosed with 5a): BLQ
- Plasma Concentration of isomer ([11]; dosed with 5b): BLQ ^b

- IC50 [1]: 19500 ± 4000 nM
- Ki [1]: 2700 ± 500 nM
Structure (SMILES): CCOC(=O)[C@@H]1N[C@H](CC(C)(C)C)[C@]2(C(=O)Nc3cc(Cl)ccc32)[C@H]1c1cccc(Cl)c1F [7a, (2′R,3S,4′S,5′R)-ethyl 6-chloro-4′-(3-chloro-2-fluorophenyl)-2′-neopentyl-2-oxospiro[indoline-3,3′-pyrrolidine]-5′-carboxylate]

Structure (SMILES): CNC(=O)[C@@H]1N[C@H](CC(C)(C)C)[C@]2(C(=O)Nc3cc(Cl)ccc32)[C@H]1c1cccc(Cl)c1F [4a, (2′R,3S,4′S,5′R)-6-chloro-4′-(3-chloro-2-fluorophenyl)-Nmethyl-2′-neopentyl-2-oxospiro[indoline-3,3′-pyrrolidine]-5′-carboxamide]
- IC50 [1, 14]: 387 ± 39 nM
- Ki [1, 15]: 51.8 ± 4.2 nM
